Laboratory results reported in ChEMBL document CHEMBL4308841, “Synthesis, in vitro antiproliferative activity, and kinase inhibitory effects of pyrazole-containing diarylureas and diarylamides” (Eur J Med Chem, 2018).
pIC50: −log10 of the molar value.

Key:
SK-MEL-2 = test: Growth inhibition of human SK-MEL-2 cells assessed as cell growth at 10 uM incubated for 48 hrs by sulforhodamine B assay relative to control; format: functional; conditions: SK-MEL-2, 48 h, read-out: Activity
HT-29 [1] = test: Growth inhibition of human HT-29 cells incubated for 48 hrs by sulforhodamine B assay; format: functional, cell-based; conditions: HT-29, 48 h
MDA-MB-435 [2] = test: Growth inhibition of human MDA-MB-435 cells incubated for 48 hrs by sulforhodamine B assay; format: functional, cell-based; conditions: MDA-MB-435, 48 h
IGROV-1 [3] = test: Growth inhibition of human IGROV1 cells incubated for 48 hrs by sulforhodamine B assay; format: functional, cell-based; conditions: IGROV-1, 48 h
OVCAR-3 [4] = test: Growth inhibition of human OVCAR3 cells incubated for 48 hrs by sulforhodamine B assay; format: functional, cell-based; conditions: OVCAR-3, 48 h
SK-OV-3 = test: Growth inhibition of human SKOV3 cells incubated for 48 hrs by sulforhodamine B assay; format: functional, cell-based; conditions: SK-OV-3, 48 h
RXF 393 = test: Growth inhibition of human RXF393 cells incubated for 48 hrs by sulforhodamine B assay; format: functional, cell-based; conditions: RXF 393, 48 h
NCI-H226 = test: Growth inhibition of human NCI-H226 cells assessed as cell growth at 0.01 uM incubated for 48 hrs by sulforhodamine B assay relative to control; format: functional; conditions: NCI-H226, 48 h, read-out: Activity
HCT-15 = test: Growth inhibition of human HCT15 cells assessed as cell growth at 0.01 uM incubated for 48 hrs by sulforhodamine B assay relative to control; format: functional; conditions: HCT-15, 48 h, read-out: Activity
KM12 = test: Growth inhibition of human KM12 cells assessed as cell growth at 0.01 uM incubated for 48 hrs by sulforhodamine B assay relative to control; format: functional; conditions: KM12, 48 h, read-out: Activity
IGROV-1 [5] = test: Growth inhibition of human IGROV1 cells assessed as cell growth at 0.01 uM incubated for 48 hrs by sulforhodamine B assay relative to control; format: functional; conditions: IGROV-1, 48 h, read-out: Activity
A498 = test: Growth inhibition of human A498 cells assessed as cell growth at 0.01 uM incubated for 48 hrs by sulforhodamine B assay relative to control; format: functional; conditions: A498, 48 h, read-out: Activity
DU-145 = test: Growth inhibition of human DU145 cells assessed as cell growth at 0.01 uM incubated for 48 hrs by sulforhodamine B assay relative to control; format: functional; conditions: DU-145, 48 h, read-out: Activity
Hs-578T = test: Growth inhibition of human Hs578T cells assessed as cell growth at 0.01 uM incubated for 48 hrs by sulforhodamine B assay relative to control; format: functional; conditions: read-out: Activity
MDA-MB-468 = test: Growth inhibition of human MDA-MB-468 cells assessed as cell growth at 0.01 uM incubated for 48 hrs by sulforhodamine B assay relative to control; format: functional; conditions: MDA-MB-468, 48 h, read-out: Activity
U-251 = test: Growth inhibition of human U251 cells assessed as cell growth at 0.1 uM incubated for 48 hrs by sulforhodamine B assay relative to control; format: functional; conditions: U-251, 48 h, read-out: Activity
MDA-MB-435 [6] = test: Growth inhibition of human MDA-MB-435 cells assessed as cell growth at 0.1 uM incubated for 48 hrs by sulforhodamine B assay relative to control; format: functional; conditions: MDA-MB-435, 48 h, read-out: Activity
BT-549 = test: Growth inhibition of human BT549 cells assessed as cell growth at 0.1 uM incubated for 48 hrs by sulforhodamine B assay relative to control; format: functional; conditions: BT-549, 48 h, read-out: Activity
HCT-116 = test: Growth inhibition of human HCT116 cells assessed as cell growth at 1 uM incubated for 48 hrs by sulforhodamine B assay relative to control; format: functional; conditions: HCT-116, 48 h, read-out: Activity
SK-MEL-28 = test: Growth inhibition of human SK-MEL-28 cells assessed as cell growth at 1 uM incubated for 48 hrs by sulforhodamine B assay relative to control; format: functional; conditions: SK-MEL-28, 48 h, read-out: Activity
IGROV-1 [7] = test: Growth inhibition of human IGROV1 cells assessed as cell growth at 1 uM incubated for 48 hrs by sulforhodamine B assay relative to control; format: functional; conditions: IGROV-1, 48 h, read-out: Activity
OVCAR-3 [8] = test: Growth inhibition of human OVCAR3 cells assessed as cell growth at 1 uM incubated for 48 hrs by sulforhodamine B assay relative to control; format: functional; conditions: OVCAR-3, 48 h, read-out: Activity
CCRF-CEM = test: Growth inhibition of human CCRF-CEM cells assessed as cell growth at 100 uM incubated for 48 hrs by sulforhodamine B assay relative to control; format: functional; conditions: read-out: Activity
HOP-62 = test: Growth inhibition of human HOP62 cells assessed as cell growth at 100 uM incubated for 48 hrs by sulforhodamine B assay relative to control; format: functional; conditions: HOP-62, 48 h, read-out: Activity
HT-29 [9] = test: Growth inhibition of human HT-29 cells assessed as cell growth at 100 uM incubated for 48 hrs by sulforhodamine B assay relative to control; format: functional; conditions: HT-29, 48 h, read-out: Activity
UACC-257 = test: Growth inhibition of human UACC257 cells assessed as cell growth at 100 uM incubated for 48 hrs by sulforhodamine B assay relative to control; format: functional; conditions: UACC-257, 48 h, read-out: Activity
786-0 = test: Growth inhibition of human 786-0 cells assessed as cell growth at 100 uM incubated for 48 hrs by sulforhodamine B assay relative to control; format: functional; conditions: 786-0, 48 h, read-out: Activity
[10] = read-out: LC50 (the source's name)
[11] = read-out: pLC50 (the source's name) (converted)

Molecule `O=C(Nc1cccc(-n2cc(-c3ccncc3)c(-c3cc(O)cc(Cl)c3)n2)c1)c1cc(C(F)(F)F)cc(C(F)(F)F)c1` has a growth at 10 µM (SK-MEL-2) of 57.8%, a GI50 (HT-29 [1]; read-out: GI50) of 2.5 µM and a CC50 (HT-29 [1]; [10]) of over 100 µM. It also gave a TGI (HT-29 [1]; read-out: TGI) of 37.7 µM, a GI50 (HT-29 [1]; read-out: pGI50 (converted)) of 2.51 µM and a CC50 (HT-29 [1]; [11]) of over 100 µM. For the same molecule, the TGI (HT-29 [1]; read-out: pTGI (converted)) was 38 µM, the GI50 (MDA-MB-435 [2]; read-out: GI50) was 3.18 µM and the LC50 (MDA-MB-435 [2]; read-out: LC50) was over 100 µM. The TGI (MDA-MB-435 [2]; read-out: TGI) was over 100 µM, the GI50 (MDA-MB-435 [2]; read-out: pGI50 (converted)) was 3.16 µM and the LC50 (MDA-MB-435 [2]; read-out: pLC50 (converted)) was over 100 µM. The TGI (MDA-MB-435 [2]; read-out: pTGI (converted)) was over 100 µM, the GI50 (IGROV-1 [3]; read-out: GI50) was 7.96 µM and the CC50 (IGROV-1 [3]; [10]) was over 100 µM. For the same molecule, the TGI (IGROV-1 [3]; read-out: TGI) was over 100 µM, the GI50 (IGROV-1 [3]; read-out: pGI50 (converted)) was 7.94 µM and the CC50 (IGROV-1 [3]; [11]) was over 100 µM. The TGI (IGROV-1 [3]; read-out: pTGI (converted)) was over 100 µM, the pIC50 (OVCAR-3 [4]) was 5.48 and the GI50 (OVCAR-3 [4]; read-out: GI50) was 3.28 µM. For the same molecule, the CC50 (OVCAR-3 [4]; [10]) was over 100 µM, the TGI (OVCAR-3 [4]; read-out: TGI) was 25.7 µM and the GI50 (OVCAR-3 [4]; read-out: pGI50 (converted)) was 3.31 µM. For the same molecule, the CC50 (OVCAR-3 [4]; [11]) was over 100 µM, the TGI (OVCAR-3 [4]; read-out: pTGI (converted)) was 10.2 µM and the GI50 (SK-OV-3; read-out: GI50) was 1.08 µM. It also gave a CC50 (SK-OV-3; [10]) of over 100 µM, a TGI (SK-OV-3; read-out: TGI) of over 100 µM and a GI50 (SK-OV-3; read-out: pGI50 (converted)) of 10.7 µM. The CC50 (SK-OV-3; [11]) was over 100 µM, the TGI (SK-OV-3; read-out: pTGI (converted)) was over 100 µM and the LC50 (RXF 393) was 24.5 µM. For the same molecule, the GI50 (RXF 393; read-out: GI50) was 1.59 µM, the TGI (RXF 393; read-out: TGI) was 43.6 µM and the GI50 (RXF 393; read-out: pGI50 (converted)) was 1.7 µM. The TGI (RXF 393; read-out: pTGI (converted)) was 4.37 µM, the growth at 0.01 µM (NCI-H226) was 95% and the growth at 0.01 µM (HCT-15) was 96%. The growth at 0.01 µM (KM12) was 96%, the growth at 0.01 µM (IGROV-1 [5]) was 100% and the growth at 0.01 µM (A498) was 53%. It also gave a growth at 0.01 µM (DU-145) of 104%, a growth at 0.01 µM (Hs-578T) of 93% and a growth at 0.01 µM (MDA-MB-468) of 91%. The growth at 0.1 µM (U-251) was 93%, the growth at 0.1 µM (MDA-MB-435 [6]) was 95% and the growth at 0.1 µM (BT-549) was 103%. It also gave a growth at 1 µM (HCT-116) of 59%, a growth at 1 µM (SK-MEL-28) of 55% and a growth at 1 µM (IGROV-1 [7]) of 103%. The growth at 1 µM (OVCAR-3 [8]) was 96%, the growth at 100 µM (CCRF-CEM) was 1% and the growth at 100 µM (HOP-62) was 14%. It also gave a growth at 100 µM (HT-29 [9]) of -5%, a growth at 100 µM (UACC-257) of -10% and a growth at 100 µM (786-0) of -28%.

For `COc1cc(Cl)cc(-c2nn(-c3cccc(NC(=O)c4ccc(Cl)c(Cl)c4)c3)cc2-c2ccncc2)c1`, the growth at 10 µM (SK-MEL-2) was 78.4%.
